{
  "source": "patent US20070117203A1",
  "about": "“Modulation of stem and progenitor cell growth by oscillatory fluid flow” (priority 2005, published 2007)",
  "tested_on": "Marrow Stromal Cells (MSCs)",
  "assay": "Intracellular calcium response of MSCs to oscillatory fluid flow in the presence of calcium channel blockers",
  "conditions": "control 67.1±11.2",
  "protocol": "Calcium Imaging: Intracellular levels of Ca^2+ were quantified using a ratiometric imaging technique with the Ca^2+ sensitive dye Fura-2 Acetoxymethyl ester (Fura-2 AM). […] The ratio of the emission intensities F340/F380 is a quantitative measurement of intracellular calcium [Ca^2+]i.\nCells were cultured on UV transparent quartz slides for 3 days. Prior to exposure to OFF, cells were washed with PBS, incubated with 10 μM Fura-2 AM in A-MEM and 2% FBS for 30 min at 37° C., and then washed again with PBS. Following Fura-2 loading, the slides were mounted in a parallel plate flow chamber, and then fixed to the stage of a Nikon TE300 epi-fluorescent microscope (Technical Instruments SF, Burlingame, Calif.). The setup was left undisturbed for 30 min, during which the cells were perfused with media at 0.05 ml/min. Cells were then subjected to 3 minutes of OFF at 1 Hz with peak shear stress of 20 dynes/cm^2. […] Ratio images were recorded and analyzed using image analysis software (Metafluor; Universal Imaging, West Chester, Pa.). […]\nData analysis: Calcium imaging data was analyzed using the Rainflow cycle counting numerical procedure. This method identifies oscillations in the time history data and is used to quantify [Ca^2+]i responses from background noise. Calcium imaging data is expressed as the fraction of cells responding i SE and mean change in [Ca^2+]i±SE. […]",
  "data": [
    {"smiles": "[Cl][Gd]([Cl])[Cl]", "note": "[gadolinium chloride]", "values": [
      {"measurement": "percentage of cells that responded to OFF with a change in intracellular calcium", "setting": "10 μM, stretch activated channel blocker, not different from control", "result": "61.1±14.7", "unit": "%"}
    ]},
    {"smiles": "C/C=C(/C)C(=O)O[C@H]1C(C)=C2[C@H]([C@@H]1OC(=O)CCCCCCC)[C@@](C)(OC(C)=O)C[C@H](OC(=O)CCC)[C@@]1(O)[C@H]2OC(=O)[C@@]1(C)O", "note": "[Thapsigargin]", "values": [
      {"measurement": "percentage of cells that responded to OFF with a change in intracellular calcium", "setting": "50 nM, empties intracellular calcium stores, significant decrease (p<0.05)", "result": "0±0", "unit": "%"}
    ]}
  ]
}
